Residues, ends and D or L forms follow the SMILES beside them. *: point of attachment. Boc = CC(C)(C)OC(=O)*

Turning to `O=c1oc(-c2ccccc2)cc(O)c1Sc1cccc2ccccc12`, the melting point was in the range of 242 to 243 °C.

For the compound `O=C1CCC2(CCC(=O)c3cc(Cl)ccc32)C(=O)N1` (stereo not drawn), the melting point is 282 to 284 °C.

In turn, `CS(=O)(=O)c1ccc(-c2cnn(-c3cccc(Cl)c3)c(=O)c2OCc2ccccc2)cc1` displayed a melting point of 110 to 113 °C. The result for `CCC1(NC(=O)CCl)COCOC1` reads 89 to 95 °C; that for `C=CCOc1cccc(-c2cn3ccc4ccccc4c3n2)c1`, 83 to 85 °C. In the case of `Cc1cccc2cc3c(=O)n(C)cc(C(=O)N[C@@H](C)C(=O)N(C)C)c3nc12` it was 268 to 274 °C; in that of `CSC(=C[N+](=O)[O-])NCCSCc1[nH]cnc1C`, 147 to 150 °C.

In turn, `CC1(C)CC(=O)Oc2ccc(O)cc21` registered a melting point of 95 to 96 °C. The compound `CCCOc1ccc(C(=O)O)cc1-c1ccc(C#N)c(=O)[nH]1` returned a melting point of 277 to 279 °C. In the case of `Cc1ccc(S(=O)(=O)n2cc(CO)nc2C)cc1`, the melting point was 140 to 143 °C. The compound `O=[N+]([O-])c1ccc(-c2nc(-c3cccnc3)no2)cc1` had a melting point of 163 to 166 °C. `CCOc1ccc(C(=O)NCc2ccc3c(c2)C(=O)N(C2(C)CCC(=O)NC2=O)C3=O)nn1` (stereo not drawn): the melting point was in the range of 126 to 128 °C.

`O=c1c(Cl)c(OCc2ccc(Cl)cc2)cnn1-c1ccc(Cl)cc1F` gave a melting point of 167 to 168 °C. The compound `Cc1cc(-c2[nH]c3ccc([N+](=O)[O-])cc3c2C)cc(C)c1O` gave a melting point of 229 to 231 °C. The result for `O=C(CS)Nc1ccc(C(=O)NCCO)cc1` reads 184 to 186 °C; that for `COC(=O)c1ccc(Cc2cc3cc(Cl)ccc3n2S(=O)(=O)c2ccc(C(C)C)cc2)cc1`, 99 °C; that for `O=C1c2c(O)cncc2C(=O)c2c(Cl)ccc(F)c21`, 227 to 228 °C. Compound `CCOC(=O)CCC1(NC(=O)c2ccc(Cl)c(Cl)c2)C(=O)Nc2ccccc21` (stereo not drawn) registered a melting point of 227 to 228 °C. In the case of `CCOC(=O)C=Cc1ccc2c(c1)CC(CNC(=O)OC(C)(C)C)CC2` (stereo not drawn) it was 117 to 119 °C; in that of `CCN(CC)CCC1(C#N)c2ccccc2COc2ccccc21` (stereo not drawn), 87 to 90 °C. Take `O=[N+]([O-])c1ccc(Oc2ccc([N+](=O)[O-])cc2-c2ccc(C(F)(F)F)cc2C(F)(F)F)c(-c2ccc(C(F)(F)F)cc2C(F)(F)F)c1`: the melting point was in the range of 72 to 73 °C.

`O=C(Cl)N1CC(Oc2ccc(Cl)cc2)C1` displayed a melting point of 78 to 80 °C.

Take `O=C(c1cc2cc3[nH]c(=O)[nH]c3cc2[nH]1)N1CCC(Cc2ccccc2)CC1`: the melting point is greater than 270 °C. `COc1ccccc1-n1c(=O)[nH]c2c(C(N)=O)nc(-c3cccc4[nH]cnc34)nc21` yielded a melting point of 312 °C. Consider `CCCn1nc2c(N)nc3ccccc3c2c1CC(C)(C)S(C)(=O)=O`, for which the melting point is 202 to 204 °C. In the case of `COC(=O)c1ccc(CN2CCN(CC(C)O)CC2)cc1` (stereo not drawn) it was 63 to 64 °C. Regarding `Cc1c(C(F)(F)F)ncn(-c2cc([N+](=O)[O-])c(F)cc2F)c1=O`, the melting point came to 157 °C. In the case of `Cc1ccc(C=CC(C)N(O)C(N)=O)o1` (stereo not drawn) it was 122 to 124 °C; in that of `CS(=O)(=O)Nc1cc2occ(C=NO)c(=O)c2cc1Oc1ccccc1`, 199 to 200 °C; in that of `CNC(=S)Nc1cc(SC)ccc1N1CCOCC1`, 132 to 133 °C. The compound `CCOC(=O)c1cnoc1-c1ccc(Cl)c(Br)c1` gave a melting point of 109 to 110 °C.

In turn, `CC(=O)OCCCN1CCC(CNC(=O)[C@@H]2CCCN2S(=O)(=O)c2ccc(Cl)c(COc3cccc4c(-n5cncn5)cc(C)nc34)c2Cl)CC1` returned a melting point of 120 °C. In the case of `COc1cc(C(=O)C=Cc2cc(-c3cccs3)ccc2OC)ccc1O` it was 142 to 144 °C; in that of `NCC1Cc2cc(C(F)(F)F)cc(-c3ccoc3)c2O1` (stereo not drawn), greater than 250 °C.

Consider `CCOC(=O)CC(C#N)(CC(=O)OCC)c1ccc(OC)cc1`, for which the melting point is 65 to 75 °C. In the case of `Cc1ccc(S(=O)(=O)OC2=COC2)cc1` it was 86 to 88 °C; in that of `Cc1cn(-c2ccc(N)cc2C(F)(F)F)c(C)n1`, 163 to 164 °C; in that of `CCCCc1nc2c(N)nc3ccc(O)cc3c2n1CCCCNC(=O)N1CCOCC1`, 177 to 182 °C.

Compound `CCCCc1nc(Cl)c(Cl)[nH]1` registered a melting point of 122 to 123 °C. The result for `CC(C)Oc1ccc2nc(COc3ccc(CC4SC(=O)N(C(c5ccccc5)(c5ccccc5)c5ccccc5)C4=O)cc3)n(C)c2n1` (stereo not drawn) reads 90 to 100 °C. With `COc1cccc2c1C1(COc3cc4c(cc31)OCO4)C(=O)N2Cc1ccc(C(F)(F)F)o1` (stereo not drawn), the melting point fell in the range of 149 to 153 °C. For `O=C(NN=Cc1ccnc2ccccc12)c1ccc(Cl)cc1`, the melting point is 233 °C. In the case of `O=c1c2c(Cc3cccc(OC(F)(F)F)c3)n[nH]c2c2cccnc2n1-c1ccccc1` it was 253 to 254 °C; in that of `NC(=O)C(c1ccc(Cl)cc1)c1ccc(-n2ncc(=O)[nH]c2=O)cc1Cl` (stereo not drawn), 161 °C; in that of `O=[N+]([O-])C=C1SCCCN1S(=O)(=O)Cc1ccccc1`, 140 to 141 °C.

Regarding `O=[N+]([O-])c1ccc(OCCN2CCC(Cc3ccccc3)CC2)cc1O`, the melting point was in the range of 136 to 137 °C. Turning to `COc1cc2c(c(Cl)c1Cl)C(=O)C(CCCl)C2` (stereo not drawn), the melting point lay in the range of 103 to 105 °C. The result for `CONS(=O)(=O)c1ccccc1S(=O)(=O)NC(=O)Nc1nc(C)cc(C)n1` reads 218 to 219 °C.

With `CCCCCCN(CC(=O)O)CC(=O)O`, the melting point lay within 130 to 131 °C.

As to `Oc1cccnc1Cc1cccc(Br)c1`, the melting point was 160 to 162 °C. `O=[N+]([O-])c1ccc2c(c1)C(c1ccccc1)=NCc1cc(CO)nn1-2` showed a melting point of 192 to 194 °C. Regarding `O=Cc1ccc2ccccc2c1OCc1ccccc1`, the melting point was in the range of 62 to 63 °C.

For the compound `CC(C)(C)CN1C(=O)[C@@H](CC(=O)Nc2cccc(-c3nnn[nH]3)c2)O[C@H](c2ccccc2Cl)c2cc(Cl)ccc21` (relative stereo), the melting point lay within 218 to 220 °C. In the case of `CN(C(=O)COc1nc(F)ns1)c1ccccc1` it was 82 °C; in that of `COc1cc2ccc(C(=O)CCCCBr)cc2cc1OC`, 93 to 95 °C; in that of `O=C(O)C(=O)CC(=O)c1cn(Cc2ccncc2)c2ccccc2c1=O`, greater than 300 °C. The result for `Nc1cccc(-c2ccc(CCN3CCN(C(=O)NCc4ccccc4)CC3)cc2)n1` reads 172 to 175 °C; that for `COc1cc(C(=O)NCc2ccc(N)cc2)cc(OC)c1OC(C)=O`, 47 to 48 °C; that for `CCCCc1cc2c3c(c[nH]c3c1)CC1C2CC(NC(=O)c2ccccc2)CN1C` (stereo not drawn), 143 to 145 °C. For `CC(=O)c1cc(NC(=O)OC(C)(C)C)ccc1O`, the melting point was in the range of 107 to 108 °C. In the case of `CCCCC(CC)C(=O)Nc1ccc(-n2nc(C(F)(F)F)cc2C(F)(F)F)cc1` (stereo not drawn) it was 127 to 128 °C; in that of `Nc1ccc2[nH]c(C(=O)N3CCC(Cc4ccccc4)CC3)cc2c1`, 175 to 180 °C; in that of `CC(C)CCn1cn[nH]c1=O`, 78 to 79 °C. Consider `CCCc1oc2ccccc2c1C(=O)c1ccc(OCCBr)cc1`, for which the melting point is 68 to 70 °C. Consider `CCn1cc(-c2cccc(C(F)(F)F)c2)c(=O)n1-c1cccc(C(F)(F)F)c1`, for which the melting point was in the range of 110 to 111 °C. Turning to `O=C1CCC(C(=O)OC2c3ccccc3C(=O)N2c2ccc3ccc(Cl)nc3n2)CC1` (stereo not drawn), the melting point stood at 203 °C.

Regarding `COc1ccc(NC(=O)c2ccc(COc3ccc4c(c3)CCC(CCN3CCCCC3)C4)cc2)cc1` (stereo not drawn), the melting point was 193 to 196 °C.

`N#Cc1cccc(Cc2ccccc2C=NC(c2ccccc2)c2ccccc2)c1` yielded a melting point of 113 to 115 °C. `CCOC(=O)C1=C(C)Nc2nc(N)nc(N)c2C1c1ccc(OC)cc1` (stereo not drawn) displayed a melting point of 98 °C. In the case of `COc1ccc(Nc2ccnc(NCCO)c2)cc1` it was 164 to 165 °C; in that of `COc1ccc(Cl)c(Oc2c(C)nc(-c3ncccn3)nc2Cl)c1`, 110 °C.

`C[C@H]1C(=O)C[C@@H]2C[C@H]1OO[C@]2(C)/C=C/C(=O)c1ccc(Cl)cc1` displayed a melting point of 127 °C.

On to `CCOC(=O)c1cc2c3n(ccc-2n1)CC(C(F)(F)F)=N3`, for which the melting point was 230 to 231 °C. In the case of `NS(=O)(=O)c1nc2ccc(OC(=O)c3ccccc3)cc2s1` it was 208 to 210 °C.

In turn, `N#Cc1ccc2c(c1)c1cc(C#N)ccc1n2Cc1ccccc1` displayed a melting point of 265 to 267 °C.

On to `CC1C(=O)N(c2ccccc2OCCCCBr)Sc2ccccc21` (stereo not drawn), for which the melting point is 93 °C. On to `COc1ccc(C(=O)Nc2ccc3ccc(Oc4ccccc4)nc3n2)cn1`, for which the melting point was 115 to 120 °C. For `CC(=O)c1c(O)cccc1OCC(O)COc1ccc(Cl)cc1Cl` (stereo not drawn), the melting point lay in the range of 130 to 132 °C.

Regarding `Cc1cc(O)c(S(=O)C23CC4CC(CC(C4)C2)C3)c(=O)o1` (stereo not drawn), the melting point worked out at 174 °C.

`COC(=O)[C@H](Cc1ccccc1)NC(=O)c1cnccn1` came in with a melting point of 152 to 155 °C. The result for `Cc1nc(CC(C)C)c(C#N)c(-c2ccc(Cl)cc2)c1C(=O)OC(C)(C)C` reads 70 to 72 °C; that for `CCN(CC)CCNC(=O)c1cc(Cl)c(N)cc1OC1CCCCC1=O` (stereo not drawn), 96 to 99 °C; that for `O=C(NC1CCCc2ccccc21)c1ccc2cnccc2n1` (stereo not drawn), 164 to 165 °C. In the case of `COC(=O)C(CCSC)NC(=O)C(CC(C)C)NC(=O)CNC(=O)C(NC(=O)C(Cc1ccccc1)NC(=O)C(C)NC(=O)OC(C)(C)C)C(C)C` (stereo not drawn) (Boc-AFVGLM-OMe; configuration not given here) it was 252 to 254 °C; in that of `C#CCN(C(=O)CCl)c1c(C)nc(N(C)C)nc1C`, 108 to 110 °C; in that of `O=C1CN2C(=O)N(c3cc(Cl)nc(Cl)c3)C(=O)[C@@]2(Cc2ccc(OC(F)(F)F)cc2)C1`, 166 °C. `CC(C)CN(CC(C)C)C(=O)c1c([N+](=O)[O-])cccc1[N+](=O)[O-]`: the melting point lay in the range of 97 to 99 °C. The result for `Oc1nn(-c2ccccc2)cc1Cc1ccccc1` reads 185 to 186 °C.

A word on the melting point: it is the temperature, or range, at which the solid turns liquid.

(Values after a melting point compilation (Tetko et al.; mined from patent text by program, amines drawn as free bases though some values may be those of a salt).)
